Consider one compound from paper PMC12035797, “Peptidomimetics Activating the Proteasome: A New Perspective for Parkinson’s Treatment” (Journal of Medicinal Chemistry, 2025).

Series [1] has as its system T1, proteasome in HEK293T cell lysate.
T1 construct: endogenous in cells; host or cells: HEK293T cell lysate
Kind of series: Proteasome activity in the HEK293T cell lysate, Suc-LLVY-AMC. Format: biochemical, human. As to the method: To assess whether activators are able to stimulate the proteasome in the cellular environment, we conducted experiments using the HEK293T cell lysate. […] The experiment was carried out as it was described.[25] Briefly, HEK293T cells were lysed, and the lysate was treated with the modulators at a concentration of 1, 2.5, 5, 10, and 25 μM, only in the case of modulators with the TAT or 6R sequence attached were the concentrations 0.5, 1, 2.5, 5, and 10 μM. The proteasome activity was probed using Suc-LLVY-AMC substrate. One μM bortezomib was used as a negative control. All experiments were performed in at least three independent replicates. One-way ANOVA with Tukey’s post-hoc test was used to determine statistical significance.

The nature of series [2]: PAMPA, blood–brain barrier mimic. Format: in vitro ADME. The settings on record: 500 μM, 37 °C, 22 h. From the text:
In neurodegenerative diseases, proteins prone to aggregation accumulate in the neuronal cells. Therefore, a necessary feature of potential drugs is not only permeability across the cell membrane but also the ability to cross the blood-brain barrier (BBB). To preliminarily investigate this feature, we performed parallel artificial membrane permeation assays (PAMPA) including as positive controls propranolol and Tat47-57, known for their ability to penetrate the blood-brain barrier. Dopamine hydrobromide was included as a negative control. For comparison, we also tested compound 1a, which is devoid of a CPP sequence. […] The PAMPA was performed as previously described.[21] Briefly, a 2% solution of porcine brain lipid membrane (PBL; Avanti Polar Lipids Inc., Alabaster, AL, USA) in anhydrous dodecane was used as a mimic of the blood-brain barrier. Propranolol hydrochloride (Merck, Darmstadt, Germany) and Tat47-57 (synthesized in-house) served as positive controls, while dopamine hydrobromide (Merck, Darmstadt, Germany) was used as a negative control. Stock solutions of the tested compounds and controls were prepared at a concentration of 10 mM in deionized water and then diluted to 500 μM using 0.1 M PBS containing 5% DMSO. The donor-acceptor plate assembly was incubated at 37 °C while being shaken at 250 rpm for 22 h. Absorbance at 290 nm was measured for propranolol using an Infinite […] plate reader (Infinite […] plate reader, Tecan). For the other samples, fluorescence measurements were performed after the compounds were reacted with 0.02% fluorescamine. The rate of passive diffusion was calculated as the linear velocity of permeation (Pe). The data represent an average of three independent biological replicates.

Series [3] has as its system hippocampal cells. Description: Survival of hippocampal cells after 7 days with activators (PFF model). Format: cell-based, mouse. The note with it: 0.5 and 2.5 μM, PFF-treated. From the text: Encouraged by the results received, we tested the ability of the modulator-CPP constructs to increase α-synuclein degradation in a cell model using primary mouse neuronal cells. The presence of Lewy-like neurites and Lewy-like bodies containing aggregated α-synuclein with phosphorylated serine 129 (pS129-αsyn) is a characteristic feature of the brains of people with Parkinson’s disease. To mimic these aggregations, we introduced a solution of preformed fibrils (PFFs) to the media of neuronal cells, which led to the induction of α-synuclein phosphorylation and its aggregation in neurons isolated from mouse embryos. PFFs are purified, prion-like fibrils of α-synuclein that are produced by expressing a recombinant monomeric protein in bacteria. Seven days after PFFs are introduced to the cells, large aggregates are visible in the cell soma, often next to the cell nucleus. We added the PFF solution to the hippocampal cells, and after an hour of incubation, we introduced solutions of the activator. After 7 days, we immunostained neuronal cells using a monoclonal antibody against the NeuN protein, which is commonly used in neuronal differentiation studies to assess their functional status. Additionally, we stained the nuclei of all incubated cells with DAPI. […]

Consider `C[C@@H](O)[C@H](NC(=O)[C@H](Cc1ccccc1)NC(=O)[C@H](Cc1ccc(O)cc1)NC(=O)CN(CCCCN)C(=O)[C@H](CCCNC(=N)N)NC(=O)[C@H](CCCNC(=N)N)NC(=O)[C@H](CCCNC(=N)N)NC(=O)[C@H](CCC(N)=O)NC(=O)[C@H](CCCNC(=N)N)NC(=O)[C@H](CCCNC(=N)N)NC(=O)[C@H](CCCCN)NC(=O)[C@H](CCCCN)NC(=O)[C@@H](N)CCCNC(=N)N)C(=O)NCC(=O)N[C@@H](CO)C(=O)N[C@@H](CCCCN)C(=O)N[C@@H](CC(=O)O)C(=O)N[C@@H](Cc1c[nH]c2ccccc12)C(=O)N[C@@H](CCCNC(=N)N)C(=O)N[C@@H](CO)C(=O)N[C@@H](Cc1ccc(O)cc1)C(=O)N[C@@H](Cc1ccc(O)cc1)C(=O)N[C@@H](CO)C(=O)O` [1f], for which, in series [1] (5 μM), the “activation of the proteasome in HEK293T cell lysate” value is listed as “approximately 4 fold”. In addition, the “efficacy in HEK293T cell lysate” value in series [1] (compared with 1a) was “higher efficacy than their parent compound 1a”. In addition, the “permeability across artificial BBB membrane, PAMPA” value in series [2] is given as “had the ability to penetrate the artificial membrane mimicking the BBB”. In addition, the “cytotoxicity to hippocampal cells” value in series [3] was “did not show cytotoxicity to hippocampal cells”.
